From patent publication US8889591B2, “Herbicidal compositions comprising 4-amino-3-chloro-5-fluoro-6-(4-chloro-2-fluoro-3-methoxyphenyl)pyridine-2-carboxylic acid or a derivative thereof and bromobutide, daimuron, oxaziclomefone or pyributicarb” (Dow Agrosciences LLC, priority 2012, dated 2014)

How the values were obtained:
Assay in all cases: Postemergence foliar-applied greenhouse weed control, direct-seeded rice system
[1] = test system: SCPJU; assay type: in vivo, Schoenoplectus juncoides (Roxb.) Palla
Text: Seeds or nutlets of the desired test plant species were planted in a soil matrix prepared by mixing a loam or sandy loam soil (e.g., 28.6 percent silt, 18.8 percent clay, and 52.6 percent sand, with a pH of about 5.8 and an organic matter content of about 1.8 percent) and calcareous grit in an 80 to 20 ratio. The soil matrix was contained in plastic pots with a volume of 1 quart and a surface area of 83.6 square centimeters (cm^2). When required to ensure good germination and healthy plants, a fungicide treatment and/or other chemical or physical treatment was applied. The plants were grown for 8-22 days in a greenhouse with an approximate 14 h photoperiod which was maintained at about 29° C. during the day and 26° C. during the night. Nutrients (Peters Excel® 15-5-15 5-Ca 2-Mg and iron chelate) were applied in the irrigation solution as needed and water was added on a regular basis. Supplemental lighting was provided with overhead metal halide 1000-Watt lamps as necessary. The plants were employed for testing when they reached the first through fourth true leaf stage. […]
(§1) Treatment requirements were calculated based upon the rates being tested, the concentration of active ingredient or acid equivalent in the formulation, and a 12 mL application volume at a rate of 187 L/ha.
For treatments comprised of formulated compounds, measured amounts of compounds were placed individually in 25 mL glass vials and diluted in a volume of 1.25% (v/v) Agri-Dex® crop oil concentrated to obtain 12× stock solutions. […]
For treatments comprised of formulated and technical compounds, weighed amounts of the technical materials were placed individually in 25 mL glass vials and dissolved in a volume of 97:3 v/v acetone/DMSO to obtain 12× stock solutions, and measured amounts of the formulated compounds were placed individually in 25 mL glass vials and diluted in a volume of 1.5% (v/v) crop oil concentrate or water to obtain 12× stock solutions. […]

[2] = test system: IPOHE; assay type: in vivo, Ipomoea hederacea Jacq.
Text: (§2) Seeds or nutlets of the desired test plant species were planted in a soil matrix prepared by mixing a loam or sandy loam soil (e.g., 28.6 percent silt, 18.8 percent clay, and 52.6 percent sand, with a pH of about 5.8 and an organic matter content of about 1.8 percent) and calcareous grit in an 80 to 20 ratio. The soil matrix was contained in plastic pots with a volume of 1 quart and a surface area of 83.6 square centimeters (cm^2). When required to ensure good germination and healthy plants, a fungicide treatment and/or other chemical or physical treatment was applied. The plants were grown for 8-22 days in a greenhouse with an approximate 14 h photoperiod which was maintained at about 29° C. during the day and 26° C. during the night. Nutrients (Peters Excel® 15-5-15 5-Ca 2-Mg and iron chelate) were applied in the irrigation solution as needed and water was added on a regular basis. Supplemental lighting was provided with overhead metal halide 1000-Watt lamps as necessary. The plants were employed for testing when they reached the first through fourth true leaf stage.
(§3) Treatments consisted of the acid or esters of 4-amino-3-chloro-5-fluoro-6-(4-chloro-2-fluoro-3-methoxy-phenyl)pyridine-2-carboxylic acid (Compound A), each formulated as an SC (suspension concentrate), and various herbicidal components alone and in combination. Forms of compound A were applied on an acid equivalent basis.
(§4) Other herbicidal components were applied on an active ingredient basis and included diamuron formulated as an EC (emulsifiable concentrate) and oxaziclomefone (technical grade material).
as §1
(§5) For treatments comprised of formulated compounds, measured amounts of compounds were placed individually in 25 mL glass vials and diluted in a volume of 1.25% (v/v) Agri-Dex® crop oil concentrated to obtain 12× stock solutions. […] Application solutions were prepared by adding an appropriate amount of each stock solution (e.g., 1 mL) and diluted to the appropriate final concentrations with the addition of 10 mL of an aqueous mixture of 1.25% (v/v) crop oil concentrate so that the final spray solutions contained 1.25+/−0.05% (v/v) crop oil concentrate.
(§6) For treatments comprised of technical compounds, weighed amounts can be placed individually in 25 mL glass vials and dissolved in a volume of 97:3 v/v acetone/DMSO to obtain 12× stock solutions. […] Application solutions can be prepared by adding an appropriate amount of each stock solution (e.g., 1 mL) and diluted to the appropriate final concentrations with the addition of 10 mL of an aqueous mixture of 1.5% (v/v) crop oil concentrate so that the final spray solutions contain 1.25% (v/v) crop oil concentrate. When technical materials are used, the concentrated stock solutions can be added to the spray solutions so that the final acetone and DMSO concentrations of the application solutions are 16.2% and 0.5%, respectively.
(§7) For treatments comprised of formulated and technical compounds, weighed amounts of the technical materials were placed individually in 25 mL glass vials and dissolved in a volume of 97:3 v/v acetone/DMSO to obtain 12× stock solutions, and measured amounts of the formulated compounds were placed individually in 25 mL glass vials and diluted in a volume of 1.5% (v/v) crop oil concentrate or water to obtain 12× stock solutions. […] Application solutions were prepared by adding an appropriate amount of each stock solution (e.g., 1 mL) and diluted to the appropriate final concentrations with the addition of an appropriate amount of an aqueous mixture of 1.5% (v/v) crop oil concentrate so that the final spray solutions contained 1.25% (v/v) crop oil concentrate. […]

[3] = test system: ECHCG; assay type: in vivo, Echinochloa crusgalli (L.) Beauv.
Text: as §2, §3, §4, §1, §5, §6, §7

[4] = test system: ECHCO; assay type: in vivo, Echinochloa colona (L.) Link
Text: as §2, §3, §4, §1, §5, §6, §7

[5] = Compound A Benzyl Ester 4.38 gae/ha alone
[6] = Compound A Benzyl Ester 8.75 gae/ha alone

In the case of `COc1c(Cl)ccc(-c2nc(C(=O)OCc3ccccc3)c(Cl)c(N)c2F)c1F` [Compound A Benzyl Ester], the “Visual Weed Control (%) - 22 DAA SCPJU Obs” value [1, 5] is reported as 75%, the “Visual Weed Control (%) - 22 DAA SCPJU Obs” value [1, 6] is reported as 80% and the “Visual Weed Control (%) - 20 DAA IPOHE Obs” value [2, 5] is reported as 10%. The “Visual Weed Control (%) - 20 DAA IPOHE Obs” value [2, 6] was 25%, the “Visual Weed Control (%) - 20 DAA IPOHE Obs” value ([2]; Compound A Benzyl Ester 17.5 gae/ha alone) was 50% and the “Visual Weed Control (%) - 20 DAA ECHCG Obs” value [3, 5] was 40%. The “Visual Weed Control (%) - 20 DAA ECHCG Obs” value [3, 6] was 90%, the “Visual Weed Control (%) - 20 DAA ECHCO Obs” value [4, 5] was 40% and the “Visual Weed Control (%) - 20 DAA ECHCO Obs” value [4, 6] was 90%.
